Data as given in patent publication US11548875B2, “Inhibitor compounds for male contraception” (University of Washington, priority 2018, dated 2023).
Read-outs that look alike come from different tables or passages of the source.

Columns and labels:
ALDH1A2 [1] = target: T1, ALDH1A2 (Homo sapiens, UniProt O94788); assay: Inhibitor screening using purified enzymes: ALDH1A2 activity, retinoic acid production by HPLC (5 uM initial screen, then IC50); assay type: biochemical; parameters: histidine-tag (C); made in house; host or cells: bacterial expression (pET28 vector, IPTG induction); conditions: purified enzyme
T1 sequence (O94788 1-518): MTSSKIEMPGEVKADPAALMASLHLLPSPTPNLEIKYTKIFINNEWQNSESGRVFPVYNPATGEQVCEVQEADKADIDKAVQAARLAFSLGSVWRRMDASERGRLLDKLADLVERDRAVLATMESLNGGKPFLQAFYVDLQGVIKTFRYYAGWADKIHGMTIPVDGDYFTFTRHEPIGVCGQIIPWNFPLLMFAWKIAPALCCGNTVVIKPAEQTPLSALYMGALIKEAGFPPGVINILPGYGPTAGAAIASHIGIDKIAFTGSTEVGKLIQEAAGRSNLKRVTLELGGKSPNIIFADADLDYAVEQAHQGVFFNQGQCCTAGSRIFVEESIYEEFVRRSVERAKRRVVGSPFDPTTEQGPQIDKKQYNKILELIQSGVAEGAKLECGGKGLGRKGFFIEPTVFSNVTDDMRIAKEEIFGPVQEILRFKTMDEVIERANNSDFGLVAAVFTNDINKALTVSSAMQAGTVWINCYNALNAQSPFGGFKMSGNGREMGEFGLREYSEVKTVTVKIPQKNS
Description: (§1) ALDHs were cloned into bacterial expression vector for in vitro enzyme assays and into mammalian expression vectors for cell-based enzyme assays. Human ALDH1A1 cDNA and human ALDH2 cDNA were purchased from OriGene (SC321535) and Open Biosystems (MHS4771-99611182), respectively. and human ALDH1A2 cDNA was cloned from human testis RNA using RT-PCR (Population Division of the Department of Economic and Social Affairs of the United Nations Secretariat. World Population prospects: the 2008 revision. Available at http://www.un.org/esa/population/ (Retrieved Sep. 30, 2011)). For bacterial expression, an open reading frame of ALDH1A1 and ALDH2 were subcloned into the pETite vector (Lucigen) with a 5′ histidine-tag and that of ALDH1A2 into a pET28 vector (Novagen) with a 3′ histidine-tag. Correct frame and sequences were verified through DNA sequencing (UW DNA sequencing facility). ALDHs were induced with 1 mM IPTG and purified using His.Bind resin (Novagen, San Diego, Calif.) and stored in a buffer containing 20 mM Hepes (pH 8), 150 mM KCl and 1 mM EDTA as previously described (Fierce, Y., de Morais Vieira, M., Piantedosi, R., Wyss, A., Blaner, W. S., and Paik, J. (2008) In vitro and in vivo characterization of retinoid synthesis from beta-carotene. Archives of biochemistry and biophysics 472, 126-138).
(§2) ALDH1A1 and ALDH1A2 activity was determined as previously reported (Beedle M T, Stevison F, Zhong G, Topping T, Hogarth C, Isoherranen N, Griswold M D. Sources of All-Trans Retinal Oxidation Independent of the Aldehyde Dehydrogenase 1A Isozymes Exist in the Postnatal Testis. Biol Reprod. 2018 Sep. 21. doi: 10.1093/biolre/ioy200). Briefly, purified enzymes were incubated in a buffer containing 10 mM HEPES buffer (pH 8.0), 150 mM potassium chloride and 2 mM EDTA with 2 mM NAD. Retinoic acid production was determined using HPLC as previously reported (Amory J K, Muller C H, Shimshoni A J, Isoherranen N, Paik J, Moreb J S, Amory D W, Evanoff R, Goldstein A S, Griswold M D. Suppression of spermatogenesis by bisdichloroacetyldiamines is mediated by inhibition of testicular retinoic acid biosynthesis. Journal of Andrology 2011; 32(1):111-119). Inhibitors were diluted in DMSO and added to the reactions. […] For initial screening of inhibitors for ALDH1A2, 1 μg ALDH1A2, 5 μM all-trans-retinal and 5 μM inhibitors were incubated for 15 min at 37° C. […] For this purpose, 0.5 μg ALDH1A2 and […] were incubated for 5 minutes at 37° C. with varying concentrations of inhibitors. To determine specificity toward ALDH1A2, the IC50 for […]

ALDH1A1 [2] = target: T2, ALDH1A1 (Homo sapiens, UniProt P00352); assay: Inhibitor screening using purified enzymes: ALDH1A1 activity, retinoic acid production by HPLC; assay type: biochemical; conditions: purified enzyme
T2 sequence (P00352 1-501): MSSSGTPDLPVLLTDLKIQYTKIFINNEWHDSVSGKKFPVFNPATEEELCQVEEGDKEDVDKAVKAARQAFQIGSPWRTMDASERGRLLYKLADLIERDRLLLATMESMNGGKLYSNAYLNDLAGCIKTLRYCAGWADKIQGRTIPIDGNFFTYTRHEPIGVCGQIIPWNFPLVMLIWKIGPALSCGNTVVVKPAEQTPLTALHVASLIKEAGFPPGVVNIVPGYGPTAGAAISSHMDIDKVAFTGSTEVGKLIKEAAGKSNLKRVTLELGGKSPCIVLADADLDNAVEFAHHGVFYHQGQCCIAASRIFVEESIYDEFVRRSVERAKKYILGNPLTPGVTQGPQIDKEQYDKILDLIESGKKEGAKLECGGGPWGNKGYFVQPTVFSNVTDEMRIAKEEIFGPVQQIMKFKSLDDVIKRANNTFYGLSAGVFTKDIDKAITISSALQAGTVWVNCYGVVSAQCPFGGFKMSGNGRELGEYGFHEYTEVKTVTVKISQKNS
Description: as §1, §2

ALDH2 = target: T3, ALDH2 (Homo sapiens, UniProt P05091); assay: Purified ALDH2 assay with propanal, NADH fluorescence; assay type: biochemical; conditions: purified enzyme
T3 construct: histidine-tag (N); made in house; host or cells: bacterial expression (pETite vector, IPTG induction)
T3 sequence (P05091 18-517): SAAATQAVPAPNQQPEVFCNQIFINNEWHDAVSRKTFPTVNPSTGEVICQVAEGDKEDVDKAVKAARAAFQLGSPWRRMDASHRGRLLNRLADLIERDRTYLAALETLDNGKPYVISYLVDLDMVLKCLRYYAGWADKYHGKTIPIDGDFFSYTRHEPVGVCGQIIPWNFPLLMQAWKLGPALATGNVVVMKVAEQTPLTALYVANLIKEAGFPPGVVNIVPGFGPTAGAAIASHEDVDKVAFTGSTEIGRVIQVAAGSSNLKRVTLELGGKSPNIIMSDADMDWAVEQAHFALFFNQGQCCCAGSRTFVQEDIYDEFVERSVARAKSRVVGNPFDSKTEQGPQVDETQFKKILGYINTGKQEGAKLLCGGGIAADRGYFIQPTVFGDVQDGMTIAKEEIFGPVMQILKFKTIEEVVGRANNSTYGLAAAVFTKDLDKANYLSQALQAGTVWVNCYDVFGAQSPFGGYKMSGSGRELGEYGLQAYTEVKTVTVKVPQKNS
Description: as §1, with “126-138). […]” for “126-138).”
For this, 2 μg purified ALDH2, 20 μM propanal and varying concentrations of inhibitors were incubated at room temperature. Enzyme activity was determined by measuring fluorescence of NADH (Ex, 350 nm/Em, 460 nm) using a Victor3 plate reader (PerkinElmer), and initial velocity was calculated from two consecutive readings over 1 minute.

ALDH1A2 [3] = target: T1, ALDH1A2; assay: Cell-based enzyme assay, retinoic acid production in ALDH1A2/H1299 cells
Method: (§3) ALDH1A1 cDNA clone was purchased transfection-ready, and ALDH1A2 full-length cDNA was subcloned into pcDNA3, a mammalian expression vector. ALDH1A1 and ALDH1A2 were transfected into H1299 cells (CRL5803, ATCC) using Lipofectamine 3000 (Invitrogen) following the manufacturer's instructions. Stably transfected cells were selected with G418 (1.2 mg/ml) and referred to as ALDH1A1/H1299 and ALDH1A2/H1299. For the cell-based enzyme assays,
(§4) H1299 cells were routinely grown in RPMI-1640 (ATCC) supplemented with 10% fetal bovine serum (Atlanta Biologicals) in a 37 C, 5% CO2, moisture-saturated atmosphere. H1299, ALDH1A1/H1299 and ALDH1A2/H1299 cells were seeded into 12-well plates (1×10^5 cells/well) and grown for 2 days to confluence. Confluent cells were treated for 20 hours in the above media excluding serum with 2 μM all-trans-retinal, and varying concentrations of inhibitors. Serum-free media was used for the treatment period to avoid retinoic acid in serum. Retinoic acid concentrations were determined from cells and media, and specificity of inhibitors was determined by comparing retinoic acid levels in the presence and absence of the inhibitors in ALDH1A1- vs. ALDH1A2-expressing cells.

ALDH1A1 [4] = target: T2, ALDH1A1; assay: Cell-based enzyme assay, retinoic acid production in ALDH1A1/H1299 cells
Method: as §3, §4

## 1-[4-(4-Nitrophenyl)-3-(azocan-1-yl)]piperazin-1-yl](1-methyl-1H-pyrrol-2-yl)methanone [Compound N104]
ALDH1A2 [1]
  IC50: 6.5 µM
ALDH1A1 [2]
  IC50: 0.141 µM

## O=C(Nc1cccc(F)c1)c1cn(-c2ccccc2)nc1-c1ccc(CBr)cc1 [Compound 8-44, 3-[4-(Bromomethyl)phenyl]-N-(3-fluorophenyl)-1-phenyl-1H-pyrazole-4-carboxamide]
ALDH1A2 [1]
  IC50: 0.72 µM
ALDH1A1 [2]
  IC50: 3.9 µM

## CCN(Cc1nn(-c2ccccc2)cc1C(=O)Nc1cccc(F)c1)C(=O)C(Cl)Cl [Compound 8-54, 3-{[(Dichloroacetyl)(ethyl)amino]methyl}-N-(3-fluorophenyl)-1-phenyl-1H-pyrazole-4-carboxamide]
ALDH1A2 [1]
  IC50: 3.9 µM
ALDH1A1 [2]
  IC50: 0.092 µM

## CCOC(=O)c1cn(-c2ccccc2)nc1-c1ccc(S(C)(=O)=O)cc1 [Compound 232, Ethyl 3-[4-(methylsulfonyl)phenyl]-1-phenyl-1H-pyrazole-4-carboxylate]
ALDH2
  IC50: > 5 µM
ALDH1A2 [3]; cell-based
  EC50: 0.317 µM
ALDH1A1 [4]; cell-based
  EC50: 0.723 µM

## CS(=O)(=O)c1ccc(-c2nn(-c3ccc(F)cc3)cc2C(=O)Nc2cccc(C(F)(F)F)c2)cc1 [Compound 256, N-(3-Trifluoromethylphenyl)-1-(4-fluorophenyl)-3-[4-(methylsulfonyl)phenyl]-1H-pyrazole-4-carboxamide]
ALDH1A2 [1]
  IC50: 0.112 µM
ALDH1A2 [3]; cell-based
  EC50: 0.011 µM
ALDH1A1 [4]; cell-based
  EC50: 46 µM

## COC(=O)c1ccc(-n2cc(C(=O)Nc3cccc(F)c3)c(-c3ccc(S(C)(=O)=O)cc3)n2)cc1 [Compound 273, Methyl 4-{4-[(3-fluorophenyl)carbamoyl]-3-[4-(methylsulfonyl)phenyl]-1H-pyrazol-1-yl} benzoate]
ALDH1A2 [1]
  IC50: 0.179 µM
ALDH1A2 [3]; cell-based
  EC50: 0.045 µM
ALDH1A1 [4]; cell-based
  EC50: 5.63 µM

## CS(=O)(=O)c1ccc(-c2nn(-c3ccc(C=O)cc3)cc2C(=O)Nc2cccc(F)c2)cc1 [Compound 280, 1-(4-Formylphenyl)-3-[4-(methylsulfonyl)phenyl]-N-(3-fluorophenyl)-1H-pyrazole-4-carboxamide]
ALDH1A2 [1]
  IC50: > 5 µM
ALDH1A2 [3]; cell-based
  EC50: 0.3 µM
ALDH1A1 [4]; cell-based
  EC50: > 20 µM

## CC(=O)Oc1ccccc1OC(=O)c1cn(-c2cccc(Cl)c2)nc1-c1ccc(S(C)(=O)=O)cc1 [Compound 291, 2-(Acetyloxy)phenyl 1-(3-chlorophenyl)-3-[4-(methylsulfonyl)phenyl]-1H-pyrazole-4-carboxylate]
ALDH1A2 [3]; cell-based
  EC50: 0.042 µM
ALDH1A1 [4]; cell-based
  EC50: > 20 µM

## O=C(O)c1ccc(-n2cc(C(=O)Nc3cccc(F)c3)c(-c3ccc(O)cc3)n2)cc1 [Compound 306, 4-{4-[(3-Fluorophenyl)carbamoyl]-3-(4-hydroxyphenyl)-1H-pyrazol-1-yl}benzoic acid]
ALDH1A2 [3]; cell-based
  EC50: 0.15 µM
ALDH1A1 [4]; cell-based
  EC50: 9.62 µM

## O=C(O)c1ccc(-n2cc(C(=O)Nc3ccccc3O)c(-c3ccc(O)cc3)n2)cc1 [Compound 307, 4-{3-(4-Hydroxyphenyl)-4-[(2-hydroxyphenyl)carbamoyl]-1H-pyrazol-1-yl}benzoic acid]
ALDH1A2 [3]; cell-based
  EC50: 0.25 µM
ALDH1A1 [4]; cell-based
  EC50: > 20 µM

## Cn1cccc1C(=O)N1CCN(c2ccc(NC(=O)C(Cl)Cl)c(N3CCCCCC3)c2)CC1 [Compound 381, {4-[4-Dichloroacetamido-3-(azepan-1-yl)phenyl]piperazin-1-yl}(1-methyl-1H-pyrrol-2-yl)methanone]
ALDH1A2 [1]
  IC50: 18.5 µM
ALDH1A2 [3]
  EC50: > 5 µM
ALDH1A1 [4]
  EC50: 0.059 µM

## Methyl 4-{4-[(2-hydroxyphenyl)carbamoyl]-[4-(methylsulfonyl)phenyl]-1H-pyrazol-1-yl} benzoate [Compound 274]
ALDH1A2 [1]
  IC50: 0.131 µM
ALDH1A2 [3]; cell-based
  EC50: 0.008 µM
ALDH1A1 [4]; cell-based
  EC50: 2.23 µM
